Laboratory results as given in patent publication US20120288604A1, “Organic Compounds” (Givaudan S.A., priority 2009, published 2012).

Key:
[1] = tested on: panel of 15 subjects all of whom were sweet sensitive; experiment: Comparative sensory ranking of sucrose solutions against 7% sucrose + para-ethoxy benzonitrile (R-index analysis); type: in vivo
Procedure: The test samples (“Test”) contained 7% sucrose and 20 ppm of para-ethoxy benzonitrile in water. The test samples were compared with control samples containing 7, 8, 9, and 10% sucrose in water. The sensory evaluations were conducted as follows. All samples were presented at ambient temperature in 15 ml aliquots at random to a panel of 15 subjects all of whom were sweet sensitive of varying sensitivity. After tasting each sample, the mouth was rinsed thoroughly with water at ambient temperature prior to tasting the next sample. The tastings were carried out in two replications in one session. Panelists were asked to rank the solutions whilst wearing nose plugs. They were asked to rank from least sweet to most sweet.
(§1) The data were subjected to an R-Index analysis. […] An R-index from 50% to the critical value means the sweetness enhancer sample has an equivalent sweetness to the compared sucrose sample.

[2] = tested on: panel of 15 subjects all of whom were sweet sensitive; experiment: Sensory ranking to find the sucrose concentration iso-intense to aqueous para-ethoxy benzonitrile (R-index analysis); type: in vivo
Procedure: The test samples contained para-ethoxy benzonitrile in water. The control samples were aqueous solutions of sucrose at 0.5%, 1.0%, 1.5% and 2.0%. The sensory evaluations were conducted as follows. All samples were presented at ambient temperature in 15 ml aliquots at random to a panel of 15 subjects all of whom were sweet sensitive of varying sensitivity. After tasting each sample, panelists rinsed their mouths thoroughly with water at ambient temperature prior to tasting subsequent samples. The tastings were carried out in two replications in one session. Panelists were asked to rank the solutions whilst wearing nose plugs. They were asked to rank from least sweet to most sweet.
as §1

[3] = Tsuzuki et al, J. of chemical and engineering data (1971), 16(1), 108-11; cited from earlier work

Structure (SMILES): CCOc1ccc(C#N)cc1 [para-ethoxy benzonitrile]
- sweetness enhancement (additive or synergistic) ([1]; 20 ppm in 7% sucrose, Examples 1 and 2 taken together): synergistic effect
- iso-sweet sucrose, by interpolation ([1]; Test (7% sucrose + 20 ppm in water)): 8.5%
- Significantly different (p < 0.05) ([1]; Test (7% sucrose + 20 ppm in water) vs. 7% sucrose): Yes
- R-index ([1]; Test (7% sucrose + 20 ppm in water) vs. 7% sucrose, critical value 64.61%): 95%
- Significantly different (p < 0.05) ([1]; Test (7% sucrose + 20 ppm in water) vs. 8% sucrose): Yes
- R-index ([1]; Test (7% sucrose + 20 ppm in water) vs. 8% sucrose, critical value 64.61%): 73%
- Significantly different (p < 0.05) ([1]; Test (7% sucrose + 20 ppm in water) vs. 9% sucrose): Yes
- R-index ([1]; Test (7% sucrose + 20 ppm in water) vs. 9% sucrose, critical value 35.39%): 28%
- Significantly different (p < 0.05) ([1]; Test (7% sucrose + 20 ppm in water) vs. 10% sucrose): Yes
- R-index ([1]; Test (7% sucrose + 20 ppm in water) vs. 10% sucrose, critical value 35.39%): 10%
- iso-sweet sucrose expected were the effect merely additive ([1]; Test (7% sucrose + 20 ppm in water), from the data of Example 1): 7.75%
- perceived sweetness relative to sucrose ([1]; Test (7% sucrose + 20 ppm) vs. 7 and 8% sucrose solutions): significantly sweeter
- perceived sweetness relative to sucrose ([1]; Test (7% sucrose + 20 ppm) vs. 9% and 10% sucrose): less sweet
- Significantly different (p < 0.05) ([2]; 10 ppm in water vs. 0.5% sucrose): No
- R-index ([2]; 10 ppm in water vs. 0.5% sucrose, critical value 64.61%): 51%
- iso sweet sucrose solution ([2]; 10 ppm solution in water): 0.5%
- Significantly different (p < 0.05) ([2]; 20 ppm in water vs. 0.5% sucrose): Yes
- R-index ([2]; 20 ppm in water vs. 0.5% sucrose, critical value 64.61%): 81%
- Significantly different (p < 0.05) ([2]; 20 ppm in water vs. 1.0% sucrose): Yes
- R-index ([2]; 20 ppm in water vs. 1.0% sucrose, critical value 35.39%): 30%
- iso-sweet sucrose solution, by interpolation ([2]; 20 ppm solution in water): 0.75%
- perceived sweetness relative to sucrose ([2]; 20 ppm solution vs. 0.5% sucrose): significantly sweeter
- perceived sweetness relative to sucrose ([2]; 20 ppm solution vs. 1% sucrose): significantly less sweet

Structure (SMILES): CCOc1ccc(C#N)cc1 [ethoxy benzonitrile]
- taste as described [3]: sweet or sweetish
